Experimental findings from patent publication EP4806435A1, “DIHYDROCHROMENE-DERIVATIVE-CONTAINING THERAPEUTIC AGENT FOR CANCER” (Sumitomo Pharma Co., Ltd., priority 2023, dated 2025) are described below.

One data set relates to BT142 cells. Put plainly: Cytotoxicity assay, LDL-supplemented sphere culture, low-grade glioma line (ATP). The note with it: 1 µM; 7 days; LDL 5 µg/mL; BT142 (IDH1 mutant-type, R132H/-). In kind it is cell-based. The procedure: U-87 cells (IDH1 wild-type) and BT142 cells derived from low-grade glioma (IDH1 mutant-type, R132H/-) were cultured for 7 days in LDL-supplemented sphere medium in the presence or absence of Compound 1 (1 µM). The LDL concentration was 5 µg/mL. After incubation, intracellular ATP levels were quantified as an indicator of cell viability, and cytotoxicity was compared between conditions.

Another data set relates to B16 cells. Put plainly: In vivo efficacy, combination with ipilimumab, B16 tumors. The note with it: Compound 1 3 mg/kg or 10 mg/kg once daily + ipilimumab 5 mg/kg once weekly; B16, subcutaneous. Details: species or system C57BL/6J mice. On the procedure:
B16 cells (3 x 10^5) were subcutaneously implanted into C57BL/6J mice (n = 6) to establish tumors. On day 12 after implantation, administration was initiated with Compound 1 at 3 mg/kg or 10 mg/kg (once daily) and ipilimumab (an anti-CTLA-4 antibody) at 5 mg/kg (once weekly), and the efficacy of each monotherapy and the combination therapy was compared.
Tumor volume was calculated using the following formula based on the short and long diameters of the tumor measured with digital calipers (Mitutoyo). [formula]
The antitumor effect was evaluated by comparing the vehicle-treated control group with the test substance-treated group, and calculating T/C using the following formula. [formula]

Data set [1] deals with luciferase-expressing U-87 cells. Put plainly: In vivo efficacy, combination with bevacizumab, orthotopic brain tumor (IVIS imaging). Conditions: Compound 1 10 mg/kg twice daily (once daily from day 30) + bevacizumab 1 mg/kg twice weekly; brain tumors in immunodeficient mice. On the procedure:
Luciferase-expressing U-87 cells, in which the luminescent enzyme luciferase was forcibly expressed, were established (obtained from ATCC (American Type Culture Collection)). 1 x 10^6 of these cells were implanted into the brains of immunodeficient mice to establish brain tumors. On day 18 after tumor cell implantation, administration was initiated with Compound 1 at 10 mg/kg (twice daily) and bevacizumab at 1 mg/kg (twice weekly). On day 30, the dosing frequency of Compound 1 was reduced to once daily. The efficacy of each monotherapy and the combination therapy was evaluated by quantifying orthotopic tumor progression using an IVIS Imaging System and comparing the results.

The subject of data set [2] is U-87 cells (IDH1 wild-type). Put plainly: Cytotoxicity, sphere culture with LDL, combination with ezetimibe (ATP). The class given is cell-based, human. Conditions: 7 days, LDL 5 µg/mL. On the procedure:
U-87 cells were cultured for 7 days in sphere medium supplemented with LDL at a concentration of 5 µg/mL, with either ezetimibe (a cholesterol absorption inhibitor) added at 3.3, 10, or 30 µM, Compound 1 added at 1 µM, or a combination of both agents. Cell viability was calculated in the same manner as in Example 12, and the cytotoxic effects of each treatment were compared between single-agent and combination conditions.

Data set [3] relates to IDH1 R132H mutant U-87 cells. Put plainly: Cytotoxicity assay, sphere culture with LDL supplementation (ATP). The class given is cell-based, human. The note with it: 1 µM; 7 days sphere culture; LDL 5 µg/mL. The procedure:
U-87 cells were established with a tetracycline-inducible IDH1 R132H mutation expression system. The cells were cultured in the presence of doxycycline (1 µM), a tetracycline derivative, for 5 days to induce the IDH1 R132H mutation. After induction of the mutation, the cells were transferred to sphere culture medium (containing B-27 supplement, epidermal growth factor, cell proliferation factors, insulin, and low-density lipoprotein [LDL]), and cultured for 7 days under sphere-forming conditions after the addition of Compound 1 (1 µM). The LDL concentration in the medium was 5 µg/mL. After incubation, cellular ATP levels were quantified as an indicator of cell viability, and cell viability was calculated as the ratio relative to ATP levels under vehicle-only conditions. Using this approach, the cytotoxic effects of the present compound under LDL-supplemented conditions were compared between wild-type (doxycycline-) and mutant (doxycycline+) cells.

In the case of `CC1(C)Oc2cc(Cl)ccc2[C@@H]2OCC3(CCN(CCn4ccnc4)CC3)C[C@H]21` [Compound 1, (4'aR,10'bR)-8'-chloro-1-[2-(1H-imidazol-1-yl)ethyl]-5',5'-dimethyl-4'a,10'b-dihydro-2'H,4'H,5'H-spiro[piperidine-4,3'-pyrano[3,2-c][1]benzopyran] diphosphate], the cytotoxicity entry in the data set on BT142 cells was “marked cytotoxicity”. In addition, the “antitumor effect in combination with ipilimumab” value in the data set on B16 cells is reported as “remarkably pronounced antitumor effect”. Further, in data set [1], the “antitumor effect in combination with bevacizumab” value is reported as “remarkably enhanced antitumor effect”. The “cytotoxicity of the combination of Compound 1 and ezetimibe” value in data set [2] (Compound 1 1 µM + ezetimibe 3.3, 10, or 30 µM) was “potent cytotoxic effects”. For the same compound, the “cytotoxicity, single agent” value in data set [2] (Compound 1 at 1 µM) is “low cytotoxicity”. Besides, the “cytotoxicity in mutant versus wild-type cells” value in data set [3] is “statistically-significantly stronger cytotoxicity in IDH1 R132H mutant cells compared with wild-type cells”.
